Measured values taken from US7868185B2, “Shp-2 inhibitors and pharmaceutical compositions comprising them” (Max-Delbruck-Centrum fur Molekulare Medizin, priority 2005, dated 2011).

Key:
[1] = earlier experiments; cited from earlier work
[2] = target: Met (Homo sapiens, UniProt P08581); conditions: in vitro; cited from earlier work
[3] = system: HGF induced scattering; conditions: in vitro; cited from earlier work
[4] = system: phosphorylation of MAP kinases Erk1 and Erk2; assay: HGF/SF phosphorylation assay (NCI-H661); format: cell-based, human; conditions: NCI-H661 cells (N58S in SHP2/PTPN11), HGF/SF stimulation, dose dependant
Description: Typically, human tumor cells (e.g. NCI-H661) were seeded at 0.25×10E6 cells/ml (1 ml/well) in a 6 well microtiter plate in RPMI/10% FBS and incubated over night at 37° C./5% CO2. Medium is exchanged against RPMI/1% FBS plus 5, 10 or 20 μM (final concentration) compound, and the cells were incubated for 20 h at 37° C./5% CO2. Medium was exchanged against RPMI (without serum) plus 5, 10 or 20 μM compound (final DMSO concentration less than 1%), and the cells were incubated for 4 h at 37° C./5% CO2. Medium was exchanged against DMEM (without serum) plus 5, 10 or 20 μM compound (final DMSO concentration less than 1%) plus 10 ng/ml HGF/SF, and the cells were incubated for 4 h at 37° C./5% CO2. […] Proteins on the blot were analyzed by antibodies against p42/p44 MAP kinase (Erk1/Erk2) (Cell Signaling Technology, Inc., Beverly, USA) and phospho-Erk1/Erk2 (Cell Signaling, Technology, Inc., Beverly, USA). The binding of the antibodies to the MAP kinases on the nitrocellulose was detected by incubation with secondary goat-anti-rabbit-antibodies coupled to horse radish peroxidase (Jackson ImmunoResearch Laboratories, Soham, UK) and subsequent reaction with ECL reagents (Western Lightning™, PerkinElmer Life Sciences, Inc. Boston, USA) and X-ray film exposure (X-OMAT™, Kodak GmbH, Stuttgart, Germany).

[5] = system: phosphorylation of MAP kinases Erk1 and Erk2; assay: HGF/SF phosphorylation assay (MDCK); format: cell-based, canine; conditions: MDCK cells, HGF/SF stimulation, 5, 10, 20 μM, dose dependant
Description: MDCK cells are seeded at 0.15×10E6 cells/ml (1 ml/well) in a 12 well microtiter plate in DMEM/10% FBS and incubated over night at 37° C./5% CO2. Medium is exchanged against DMEM/1% FBS plus 5, 10 or 20 μM (final concentration) compound, and the cells are incubated for 16 h at 37° C./5% CO2. Medium is exchanged against DMEM (without serum) plus 5, 10 or 20 μM compound (final DMSO concentration less than 1%), and the cells are incubated for 2 h at 37° C./5% CO2. Medium is exchanged against DMEM (without serum) plus 5, 10 or 20 μM compound (final DMSO concentration less than 1%) plus 10 ng/ml HGF/SF, and the cells are incubated for 6 h at 37° C./5% CO2. […] Proteins on the blot are analyzed by antibodies against p42/p44 MAP kinase (Erk1/Erk2) (Cell Signaling Technology, Inc., Beverly, USA) and phospho-Erk1/Erk2 (Cell Signaling Technology, Inc., Beverly, USA).
The binding of the antibodies to the MAP kinases on the nitrocellulose was detected by incubation with secondary goat-anti-rabbit-antibodies coupled to horse radish peroxidase (Jackson ImmunoResearch Laboratories, Soham, UK) and subsequent reaction with ECL reagents (Western Lightning™, PerkinElmer Life Sciences, Inc. Boston, USA) and X-ray film exposure (X-OMAT™, Kodak GmbH, Stuttgart, Germany). […]

Met, sequence (P08581 25-1390): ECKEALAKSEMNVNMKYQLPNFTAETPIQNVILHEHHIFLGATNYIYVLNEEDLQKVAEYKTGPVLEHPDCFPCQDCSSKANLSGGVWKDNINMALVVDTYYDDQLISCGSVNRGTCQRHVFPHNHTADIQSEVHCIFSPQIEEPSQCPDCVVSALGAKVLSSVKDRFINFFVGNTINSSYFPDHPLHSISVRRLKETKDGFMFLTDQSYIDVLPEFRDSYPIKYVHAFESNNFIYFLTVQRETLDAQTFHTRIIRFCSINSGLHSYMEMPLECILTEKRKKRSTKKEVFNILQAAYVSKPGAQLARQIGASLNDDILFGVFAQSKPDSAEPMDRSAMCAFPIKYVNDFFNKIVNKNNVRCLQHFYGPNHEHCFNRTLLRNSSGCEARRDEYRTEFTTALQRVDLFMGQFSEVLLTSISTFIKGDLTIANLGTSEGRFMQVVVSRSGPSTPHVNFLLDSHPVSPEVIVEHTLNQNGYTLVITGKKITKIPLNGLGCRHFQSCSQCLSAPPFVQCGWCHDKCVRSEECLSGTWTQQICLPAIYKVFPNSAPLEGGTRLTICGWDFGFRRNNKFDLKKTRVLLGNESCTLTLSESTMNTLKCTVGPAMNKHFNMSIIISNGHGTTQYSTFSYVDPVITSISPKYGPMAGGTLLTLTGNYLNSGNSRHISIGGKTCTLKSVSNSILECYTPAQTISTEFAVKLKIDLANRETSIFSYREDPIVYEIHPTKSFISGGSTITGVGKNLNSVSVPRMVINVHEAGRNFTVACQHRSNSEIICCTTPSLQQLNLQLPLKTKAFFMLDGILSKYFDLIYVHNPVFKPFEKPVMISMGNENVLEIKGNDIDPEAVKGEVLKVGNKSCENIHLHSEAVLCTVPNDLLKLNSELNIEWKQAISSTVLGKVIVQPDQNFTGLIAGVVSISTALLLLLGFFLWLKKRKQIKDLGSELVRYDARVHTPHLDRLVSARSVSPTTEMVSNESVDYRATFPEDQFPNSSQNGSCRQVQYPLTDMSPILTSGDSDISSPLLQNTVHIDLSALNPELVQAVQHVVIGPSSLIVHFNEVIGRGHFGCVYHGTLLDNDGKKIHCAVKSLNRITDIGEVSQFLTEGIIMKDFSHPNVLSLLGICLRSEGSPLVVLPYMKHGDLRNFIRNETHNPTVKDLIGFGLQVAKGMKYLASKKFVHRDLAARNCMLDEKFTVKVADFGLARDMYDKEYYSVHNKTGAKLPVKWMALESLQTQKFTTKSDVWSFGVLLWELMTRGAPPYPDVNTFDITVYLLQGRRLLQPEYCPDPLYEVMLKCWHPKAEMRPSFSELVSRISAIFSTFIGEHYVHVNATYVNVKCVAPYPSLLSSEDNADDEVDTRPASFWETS

sustained MAP kinase phosphorylation (P-Erk1/Erk1) [5] | Compound | antitumor activity in vivo [1] | Met autophosphorylation [2] | HGF induced scattering [3] | sustained MAP kinase phosphorylation [4]
 | COC(=O)[C@@]1(O)C[C@H]2O[C@]1(C)n1c3ccccc3c3c4c(c5c6ccccc6n2c5c31)C(=O)NC4 [Compound K252a] | no antitumor activity | inhibits | inhibits | 
inhibited | O=C1/C(=N\Nc2ccc(S(=O)(=O)O)cc2)C(c2ccc([N+](=O)[O-])cc2)=NN1c1ccccc1 [II-1, 4-(2-(3-(4-nitrophenyl)-5-oxo-1-phenyl-1,5-dihydro-4H-pyrazol-4-ylidene)hydrazino)-benzenesulfonic acid] |  |  |  | inhibited
